Values quoted from earlier work in US20110287097A1, “PHARMACEUTICAL COMPOSITIONS COMPRISING ROPINIROLE” (DR. REDDY'S LABORATORIES, INC., priority 2007, published 2011).

CCCN(CCC)CCc1cccc2c1CC(=O)N2 [Ropinirole, 4-[2-(dipropylamino)ethyl]-1,3-dihydro-2H-indol-2-one]
time to peak plasma concentration (after administration of an immediate release tablet): 1 to 2 h | absolute systemic bioavailability (in vivo): 55% | mean plasma elimination half-life (in vivo): approximately 6 hours
